Each molecule was assayed against Human immunodeficiency virus type 1 protease (Human immunodeficiency virus 1, UniProt Q72874) (assay: Inhibitory constant against HIV-1 protease).

Structure (SMILES) | Ki
COC(=O)[C@@H](NC(=O)[C@@H](/C=C/[C@H](C)C(=O)N[C@H](C(=O)OC)C(C)C)C(C)C)C(C)C | > 67 µM
COC(=O)[C@@H](NC(=O)[C@@H](/C=C/[C@@H](C(=O)N[C@H](C(=O)OC)C(C)C)C(C)C)Cc1ccccc1)C(C)C | 5 µM
COC(=O)[C@@H](NC(=O)[C@@H](C)/C=C/[C@@H](Cc1ccccc1)C(=O)N[C@H](C(=O)OC)C(C)C)C(C)C | > 67 µM

Source: ChEMBL document CHEMBL1126530, “A concise enantioselective synthesis of rans-olefin dipeptide isosteres” (Bioorg Med Chem Lett, 1993)
